# Assay results from ChEMBL document CHEMBL4420071, “Method for treating skin with retinoids and retinoid boosters” (2013).
# How the values were obtained:
# Homo sapiens [1] = species: Homo sapiens; assay: Inhibition of transglutaminase in human keratinocytes assessed as mean transglutaminase activity level at 1 10^-3M in presence of 10 uM retinal relative to retinal alone; format: cell-based; set-up: scale not given: the % may be the effect or the level left
# Homo sapiens [2] = species: Homo sapiens; assay: Inhibition of transglutaminase in human keratinocytes assessed as mean transglutaminase activity level at 1.23 10^-5M in presence of 10 uM retinal relative to retinal alone; format: cell-based; set-up: scale not given: the % may be the effect or the level left
# Homo sapiens [3] = species: Homo sapiens; assay: Inhibition of transglutaminase in human keratinocytes assessed as mean transglutaminase activity level at 1.4 10^-2M in presence of 10 uM retinal relative to retinal alone; format: cell-based; set-up: scale not given: the % may be the effect or the level left
# Homo sapiens [4] = species: Homo sapiens; assay: Inhibition of transglutaminase in human keratinocytes assessed as mean transglutaminase activity level at 3.29 10^-7M in presence of 10 uM retinal relative to retinal alone; format: cell-based; set-up: scale not given: the % may be the effect or the level left
# Homo sapiens [5] = species: Homo sapiens; assay: Inhibition of transglutaminase in human keratinocytes assessed as mean transglutaminase activity level at 4.1 10^-5M in presence of 10 uM retinal relative to retinal alone; format: cell-based; set-up: scale not given: the % may be the effect or the level left
# Homo sapiens [6] = species: Homo sapiens; assay: Inhibition of transglutaminase in human keratinocytes assessed as mean transglutaminase activity level at 1.65 10^-7M in presence of 10 uM retinal relative to retinal alone; format: cell-based; set-up: scale not given: the % may be the effect or the level left
# Homo sapiens [7] = species: Homo sapiens
# Description: Inhibition of transglutaminase in human keratinocytes in presence of 10 uM retinal relative to retinal alone
# Homo sapiens [8] = species: Homo sapiens; assay: Inhibition of transglutaminase in human keratinocytes assessed as mean transglutaminase activity level at 3.73 10^-4M in presence of 10 uM retinal relative to retinal alone; format: cell-based; set-up: scale not given: the % may be the effect or the level left
# Homo sapiens [9] = species: Homo sapiens; assay: Inhibition of transglutaminase in human keratinocytes assessed as mean transglutaminase activity level at 4.8 10^-3M in presence of 10 uM retinal relative to retinal alone; format: cell-based; set-up: scale not given: the % may be the effect or the level left
# Homo sapiens [10] = species: Homo sapiens; assay: Inhibition of transglutaminase in human keratinocytes assessed as mean transglutaminase activity level at 8.2 10^-6M in presence of 10 uM retinal relative to retinal alone; format: cell-based; set-up: scale not given: the % may be the effect or the level left
# Homo sapiens [11] = species: Homo sapiens; assay: Inhibition of transglutaminase in human keratinocytes assessed as mean transglutaminase activity level at 4.3 10^-9M in presence of 10 uM retinal relative to retinal alone; format: cell-based; set-up: scale not given: the % may be the effect or the level left
# Homo sapiens [12] = species: Homo sapiens; assay: Inhibition of transglutaminase in human keratinocytes assessed as mean transglutaminase activity level at 5.0 10^-8M in presence of 10 uM retinal relative to retinal alone; format: cell-based; set-up: scale not given: the % may be the effect or the level left
# Homo sapiens [13] = species: Homo sapiens; assay: Inhibition of transglutaminase in human keratinocytes assessed as mean transglutaminase activity level at 2 10^-8M in presence of 10 uM retinal relative to retinal alone; format: cell-based; set-up: scale not given: the % may be the effect or the level left
# [14] = molecular target: T1, Cellular retinoic acid-binding protein 2 (Homo sapiens) (UniProt P29373); assay: Inhibition of radioactive all-trans retinoic acid binding to CRABP2 (unknown origin) expressed in Escherichia coli BLR(DE3)pLys incubated for 1 hr by scintillation counting assay; conditions: concentration not given here
# T1 sequence (whole entry): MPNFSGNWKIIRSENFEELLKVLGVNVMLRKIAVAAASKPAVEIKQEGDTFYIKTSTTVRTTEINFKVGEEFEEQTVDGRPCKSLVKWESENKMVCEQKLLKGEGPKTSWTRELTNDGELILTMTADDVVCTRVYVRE
# Homo sapiens [15] = species: Homo sapiens; assay: Inhibition of transglutaminase in human keratinocytes assessed as mean transglutaminase activity level at 1.1 10^-8M in presence of 10 uM retinal relative to retinal alone; format: cell-based; set-up: scale not given: the % may be the effect or the level left
# Homo sapiens [16] = species: Homo sapiens; assay: Inhibition of transglutaminase in human keratinocytes assessed as mean transglutaminase activity level at 1.2 10^-5M in presence of 10 uM retinal relative to retinal alone; format: cell-based; set-up: scale not given: the % may be the effect or the level left
# Homo sapiens [17] = species: Homo sapiens; assay: Inhibition of transglutaminase in human keratinocytes assessed as mean transglutaminase activity level at 1.23 10^-4M in presence of 10 uM retinal relative to retinal alone; format: cell-based; set-up: scale not given: the % may be the effect or the level left
# Homo sapiens [18] = species: Homo sapiens; assay: Inhibition of transglutaminase in human keratinocytes assessed as mean transglutaminase activity level at 5.1 10^-8M in presence of 10 uM retinal relative to retinal alone; format: cell-based; set-up: scale not given: the % may be the effect or the level left
# Homo sapiens [19] = species: Homo sapiens; assay: Inhibition of transglutaminase in human keratinocytes assessed as mean transglutaminase activity level at 3.1 10^-5M in presence of 10 uM retinal relative to retinal alone; format: cell-based; set-up: scale not given: the % may be the effect or the level left
# Homo sapiens [20] = species: Homo sapiens; assay: Inhibition of transglutaminase in human keratinocytes assessed as mean transglutaminase activity level at 1.29 10^-6M in presence of 10 uM retinal relative to retinal alone; format: cell-based; set-up: scale not given: the % may be the effect or the level left
# Homo sapiens [21] = species: Homo sapiens; assay: Inhibition of transglutaminase in human keratinocytes assessed as mean transglutaminase activity level at 3.65 10^-6M in presence of 10 uM retinal relative to retinal alone; format: cell-based; set-up: scale not given: the % may be the effect or the level left
# Homo sapiens [22] = species: Homo sapiens; assay: Inhibition of transglutaminase in human keratinocytes assessed as mean transglutaminase activity level at 1 10^-8M in presence of 10 uM retinal relative to retinal alone; format: cell-based; set-up: scale not given: the % may be the effect or the level left
# Homo sapiens [23] = species: Homo sapiens; assay: Inhibition of transglutaminase in human keratinocytes assessed as mean transglutaminase activity level at 2 10^-7M in presence of 10 uM retinal relative to retinal alone; format: cell-based; set-up: scale not given: the % may be the effect or the level left
# Homo sapiens [24] = species: Homo sapiens; assay: Inhibition of transglutaminase in human keratinocytes assessed as mean transglutaminase activity level at 9.1 10^-4M in presence of 10 uM retinal relative to retinal alone; format: cell-based; set-up: scale not given: the % may be the effect or the level left
smiles,measurement,setting,value
COc1cc(C=O)ccc1O,Activity,Homo sapiens [1],124%
same,Activity,Homo sapiens [2],82%
same,Activity,Homo sapiens [3],21.5%
same,Activity,Homo sapiens [4],93%
same,Activity,Homo sapiens [5],98%
same,Activity,Homo sapiens [6],80%
same,IC20,Homo sapiens [7],8.47 ×10⁻³ M
same,Activity,Homo sapiens [8],101%
same,Activity,Homo sapiens [9],93.8%
same,Activity,Homo sapiens [10],109%
CCCCCCC(O)CCCCCCCCCCC(=O)O (stereo unspecified),Activity,Homo sapiens [11],71%
same,Activity,Homo sapiens [12],81%
same,Activity,Homo sapiens [13],118%
same,Activity,Homo sapiens [2],-5.2%
same,inhibition,[14],> 50%
same,Activity,Homo sapiens [4],82%
same,Activity,Homo sapiens [5],32.4%
same,Activity,Homo sapiens [6],90.2%
same,IC20,Homo sapiens [7],1.45 ×10⁻⁵ M
same,Activity,Homo sapiens [15],98%
same,Activity,Homo sapiens [10],97.6%
CCCCCCCCCCCCCCCCC(O)C(=O)O (stereo unspecified),Activity,Homo sapiens [16],105%
same,Activity,Homo sapiens [17],51%
same,Activity,Homo sapiens [18],64%
same,Activity,Homo sapiens [19],96%
same,Activity,Homo sapiens [20],80%
same,Activity,Homo sapiens [21],63%
same,Activity,Homo sapiens [22],58%
same,Activity,Homo sapiens [23],142%
same,Activity,Homo sapiens [8],69.3%
same,Activity,Homo sapiens [24],46.6%
